Measured values: patent US20230147468A1, “RECOMBINANT PEPTIDE TO TREAT FIRE BLIGHT” (INNATE IMMUNITY LLC, priority 2020, published 2023)
No end group written: not given here.

Columns and labels:
[1] = test system: Erwinia amylovora (ATCC 49946); assay: Minimum inhibitory concentration, serial dilutions of peptide; assay type: cell-based; conditions: for activity against Erwinia amylovora (MIC assay): Erwinia amylovora ATCC 49946, serial dilutions
apple reference gene = assay: Detached leaf assay, Ct of apple reference gene; assay type: in vivo; conditions: detached apple leaves treated with 28P-2
Excerpt: Water was used as a control.

Pseudomonas syringae = assay: Minimum inhibitory concentration assay; assay type: cell-based; conditions: causes speck in tomato
Xanthomonas perforans = assay: Minimum inhibitory concentration assay; assay type: cell-based; conditions: causes spot in tomato
Ralstonia solanaeceum = assay type: cell-based; conditions: causes bacterial wilt in tomato
[2] = test system: Xanthomonas euvesicatoria; assay: Minimum inhibitory concentration assay; assay type: cell-based; conditions: causes spot in tomato

KEIVRRIEKFLRGPGRKRIVERIEKFLR [28P-8]
activity against Erwinia amylovora (MIC assay) [1]: active

KRIVQRIKDFLRGPGRKRIVQRIKDFLR [28P-2]
level (Ct) of apple reference gene upon treatment (apple reference gene): remained unchanged

KVLSRVHAALKSIFDLGPGRKVLSRVHAALKSIFDL [36P]
toxicity to Erwinia amylovora by MIC, compared with 28P-2 ([1]; 36P relative to 28P-2, FIG. 5): significantly more toxic
activity against Erwinia amylovora (MIC assay) [1]: significant activity
activity against Pseudomonas syringae (Pseudomonas syringae): significant activity
activity against Xanthomonas perforans (Xanthomonas perforans): significant activity
activity against Ralstonia solanaeceum (Ralstonia solanaeceum): significant activity
activity against Xanthomonas euvesicatoria [2]: significant activity

KLIKLIKKILKKGPGRKLIKLIKKILKK [28P-4]
activity against Erwinia amylovora (MIC assay) [1]: active
